Experimental data published in patent US8686044B2, “Amide derivative, pest control agent containing the amide derivative, and use of the amide derivative” (Mitsui Chemicals Agro, Inc., priority 2008, dated 2014).

Legend:
Plutella xylostella = test: Pesticidal test against Plutella xylostella (cabbage leaf dip); format: in vivo; details: foliar, 144 h, 2-stage larvae, examined after 6 days, 25° C., read-out: pesticidal rate; for pest or weed control at 10 ppm: concentration 10 ppm; for pest or weed control at 1 ppm: concentration 1 ppm
Description: (§1) Pesticidal Test against Plutella xylostella A piece of a cabbage leaf was immersed for 30 seconds in a chemical solution in which a test compound had been prepared at a predetermined concentration, and air-dried, and then put into a 7 cm polyethylene cup having a filter paper laid on the bottom thereof, and 2-stage larvae of Plutella xylostella were released. They were left to stand in a thermostatic chamber at 25° C., and the numbers of the living pests and the dead pests were examined after 6 days. The test was carried out with five larvae per group in two replicates. Further, the above compound (A) was used as a comparative compound.

Spodoptera litura = test: Pesticidal test against Spodoptera litura (cabbage leaf dip); format: in vivo; details: foliar, 144 h, 2-stage larvae, examined after 6 days, 25° C., read-out: pesticidal rate; for pest or weed control at 1 ppm: concentration 1 ppm; for pest or weed control at 10 ppm: concentration 10 ppm
Description: as §1, with “Spodoptera litura” for “Plutella xylostella”, “following” for “above”, “(A) disclosed in the pamphlet of International Publication WO 2005/073165” for “(A)”

SMILES | pest or weed control at 10 ppm (Plutella xylostella) [%] | pest or weed control at 1 ppm (Spodoptera litura) [%] | pest or weed control at 10 ppm (Spodoptera litura) [%] | pest or weed control at 1 ppm (Plutella xylostella) [%]
N#Cc1ccc(C(=O)Nc2c(Cl)cc(C(F)(C(F)(F)F)C(F)(F)F)cc2C(F)(F)F)cc1NC(=O)c1ccccc1 [1-470] | ≥ 70 | ≥ 70 |  | 
N#Cc1ccc(C(=O)Nc2c(Cl)cc(C(F)(C(F)(F)F)C(F)(F)F)cc2C(F)(F)F)cc1NC(=O)c1cccnc1Cl [1-506] | ≥ 70 |  | ≥ 70 | 
N#Cc1ccc(C(=O)Nc2c(Cl)cc(C(F)(C(F)(F)F)C(F)(F)F)cc2C(F)(F)F)cc1NC(=O)c1ccc(Cl)nc1 [1-513] |  | ≥ 70 |  | ≥ 70
CN(C(=O)c1ccc(Cl)nc1)c1cc(C(=O)Nc2c(Cl)cc(C(F)(C(F)(F)F)C(F)(F)F)cc2C(F)(F)F)ccc1C#N [2-513] |  |  | ≥ 70 | ≥ 70
CN(C(=O)c1ccc(C#N)nc1)c1cc(C(=O)Nc2c(Cl)cc(C(F)(C(F)(F)F)C(F)(F)F)cc2C(F)(F)F)ccc1C#N [2-518] | ≥ 70 |  | ≥ 70 | 
O=C(Nc1cccc(C(=O)Nc2c(Br)cc(C(F)(C(F)(F)F)C(F)(F)C(F)(F)F)cc2Br)c1)c1ccccc1 (stereo not shown) [6-38] |  | ≥ 70 |  | ≥ 70
N#Cc1ccc(C(=O)Nc2cccc(C(=O)Nc3c(Br)cc(C(F)(C(F)(F)F)C(F)(F)C(F)(F)F)cc3Br)c2)cc1 (stereo not shown) [6-46] |  | ≥ 70 |  | ≥ 70
O=C(Nc1cccc(C(=O)Nc2c(Br)cc(C(F)(C(F)(F)F)C(F)(F)C(F)(F)F)cc2Br)c1)c1ccc(Cl)nc1 (stereo not shown) [6-60] | ≥ 70 | ≥ 70 |  | 
N#Cc1cccc(C(=O)Nc2cccc(C(=O)Nc3c(I)cc(C(F)(C(F)(F)F)C(F)(F)C(F)(F)F)cc3I)c2)c1 (stereo not shown) [6-78] |  | ≥ 70 |  | ≥ 70
O=C(Nc1cccc(C(=O)Nc2c(I)cc(C(F)(C(F)(F)F)C(F)(F)C(F)(F)F)cc2I)c1)c1ccc(Cl)nc1 (stereo not shown) [6-93] | ≥ 70 | ≥ 70 |  | 
O=C(Nc1cccc(C(=O)Nc2c(Cl)cc(C(F)(C(F)(F)F)C(F)(F)F)cc2C(F)(F)F)c1)c1ccccc1 [6-111] |  | ≥ 70 |  | ≥ 70
N#Cc1cccc(C(=O)Nc2cccc(C(=O)Nc3c(Br)cc(C(F)(C(F)(F)F)C(F)(F)F)cc3C(F)(F)F)c2)c1 [6-288] |  | ≥ 70 |  | ≥ 70
N#Cc1ccc(C(=O)Nc2cccc(C(=O)Nc3c(Br)cc(C(F)(C(F)(F)F)C(F)(F)F)cc3C(F)(F)F)c2)cc1 [6-289] |  | ≥ 70 |  | ≥ 70
N#Cc1ccc(C(=O)Nc2cccc(C(=O)Nc3c(Br)cc(C(F)(C(F)(F)F)C(F)(F)F)cc3C(F)(F)F)c2)c(F)c1 [6-300] |  | ≥ 70 |  | ≥ 70
O=C(Nc1cccc(C(=O)Nc2c(I)cc(C(F)(C(F)(F)F)C(F)(F)F)cc2C(F)(F)F)c1)c1ccccc1 [6-424] |  | ≥ 70 |  | ≥ 70
O=C(Nc1c(I)cc(C(F)(C(F)(F)F)C(F)(F)F)cc1C(F)(F)F)c1cccc(NC(=O)c2ccc(Cl)cc2Cl)c1 [6-448] | ≥ 70 | ≥ 70 |  | 
O=C(Nc1c(I)cc(C(F)(C(F)(F)F)C(F)(F)F)cc1C(F)(F)F)c1cccc(NC(=O)c2ccc([N+](=O)[O-])cc2Cl)c1 [6-454] | ≥ 70 |  | ≥ 70 | 
O=C(Nc1cccc(C(=O)Nc2c(I)cc(C(F)(C(F)(F)F)C(F)(F)F)cc2C(F)(F)F)c1)c1ccc(Cl)nc1 [6-467] |  | ≥ 70 |  | ≥ 70
O=C(Nc1cccc(C(=O)Nc2c(I)cc(C(F)(C(F)(F)F)C(F)(F)C(F)(F)F)cc2C(F)(F)F)c1)c1ccccc1 (stereo not shown) [6-502] |  | ≥ 70 |  | ≥ 70
O=C(Nc1cccc(C(=O)Nc2c(I)cc(C(F)(C(F)(F)F)C(F)(F)C(F)(F)F)cc2C(F)(F)F)c1)c1ccc(Cl)nc1 (stereo not shown) [6-545] |  | ≥ 70 |  | ≥ 70
O=C(Nc1cccc(C(=O)Nc2c(C(F)(F)F)cc(C(F)(C(F)(F)F)C(F)(F)F)cc2C(F)(F)F)c1)c1ccccc1 [6-804] |  | ≥ 70 |  | ≥ 70
N#Cc1cccc(C(=O)Nc2cccc(C(=O)Nc3c(C(F)(F)F)cc(C(F)(C(F)(F)F)C(F)(F)F)cc3C(F)(F)F)c2)c1 [6-824] |  | ≥ 70 |  | ≥ 70
N#Cc1ccc(C(=O)Nc2cccc(C(=O)Nc3c(C(F)(F)F)cc(C(F)(C(F)(F)F)C(F)(F)F)cc3C(F)(F)F)c2)cc1 [6-825] |  | ≥ 70 |  | ≥ 70

SMILES | pest or weed control at 10 ppm (Plutella xylostella) [%] | pest or weed control at 1 ppm (Spodoptera litura) [%] | pest or weed control at 10 ppm (Spodoptera litura) [%] | pest or weed control at 1 ppm (Plutella xylostella) [%]
O=C(Nc1c(C(F)(F)F)cc(C(F)(C(F)(F)F)C(F)(F)F)cc1C(F)(F)F)c1cccc(NC(=O)c2cccnc2Cl)c1 [6-840] |  | ≥ 70 |  | ≥ 70
O=C(Nc1cccc(C(=O)Nc2c(I)cc(C(F)(C(F)(F)F)C(F)(F)F)cc2C(F)(F)F)c1F)c1ccc(F)cc1Cl [6-1755] |  | ≥ 70 |  | ≥ 70
O=C(Nc1cccc(C(=O)Nc2c(Cl)cc(C(F)(C(F)(F)F)C(F)(F)F)cc2Br)c1F)c1ccccc1 [6-5902] |  | ≥ 70 |  | 
CS(=O)(=O)c1ccc(C(=O)Nc2cccc(C(=O)Nc3c(I)cc(C(F)(C(F)(F)F)C(F)(F)F)cc3C(F)(F)F)c2)c(Cl)c1 [6-5912] |  | ≥ 70 |  | ≥ 70
O=C(Nc1cccc(C(=O)Nc2c(Br)cc(C(F)(F)C(F)(F)F)cc2C(F)(F)F)c1)c1ccccc1 [6-5913, 3-benzamide-N-(2-bromo-4-(perfluoroethyl)-6-(trifluoromethyl)phenyl)benzamide] | ≥ 70 |  | ≥ 70 | 
CN(C(=O)c1ccccc1)c1cccc(C(=O)Nc2c(Br)cc(C(F)(C(F)(F)F)C(F)(F)C(F)(F)F)cc2Br)c1 (stereo not shown) [7-38] |  | ≥ 70 |  | ≥ 70
CN(C(=O)c1cccc(C#N)c1)c1cccc(C(=O)Nc2c(Br)cc(C(F)(C(F)(F)F)C(F)(F)C(F)(F)F)cc2Br)c1 (stereo not shown) [7-45] |  | ≥ 70 |  | ≥ 70
CN(C(=O)c1ccc(C#N)cc1)c1cccc(C(=O)Nc2c(Br)cc(C(F)(C(F)(F)F)C(F)(F)C(F)(F)F)cc2Br)c1 (stereo not shown) [7-46] |  | ≥ 70 |  | ≥ 70
CN(C(=O)c1ccc(Cl)nc1)c1cccc(C(=O)Nc2c(Br)cc(C(F)(C(F)(F)F)C(F)(F)C(F)(F)F)cc2Br)c1 (stereo not shown) [7-60] |  | ≥ 70 |  | ≥ 70
CN(C(=O)c1ccccc1)c1cccc(C(=O)Nc2c(I)cc(C(F)(C(F)(F)F)C(F)(F)C(F)(F)F)cc2I)c1 (stereo not shown) [7-71] |  | ≥ 70 |  | ≥ 70
CN(C(=O)c1ccccc1F)c1cccc(C(=O)Nc2c(I)cc(C(F)(C(F)(F)F)C(F)(F)C(F)(F)F)cc2I)c1 (stereo not shown) [7-72] |  | ≥ 70 |  | ≥ 70
CN(C(=O)c1cccc(C#N)c1)c1cccc(C(=O)Nc2c(I)cc(C(F)(C(F)(F)F)C(F)(F)C(F)(F)F)cc2I)c1 (stereo not shown) [7-78] |  | ≥ 70 |  | ≥ 70
CN(C(=O)c1ccc(C#N)cc1)c1cccc(C(=O)Nc2c(I)cc(C(F)(C(F)(F)F)C(F)(F)C(F)(F)F)cc2I)c1 (stereo not shown) [7-79] |  | ≥ 70 |  | ≥ 70
CN(C(=O)c1c(F)cccc1F)c1cccc(C(=O)Nc2c(I)cc(C(F)(C(F)(F)F)C(F)(F)C(F)(F)F)cc2I)c1 (stereo not shown) [7-80] |  | ≥ 70 |  | ≥ 70
CN(C(=O)c1ccc(Cl)nc1)c1cccc(C(=O)Nc2c(I)cc(C(F)(C(F)(F)F)C(F)(F)C(F)(F)F)cc2I)c1 (stereo not shown) [7-93] |  | ≥ 70 |  | ≥ 70
CN(C(=O)c1ccc(C#N)cc1)c1cccc(C(=O)Nc2c(Cl)cc(C(F)(C(F)(F)F)C(F)(F)F)cc2C(F)(F)F)c1 [7-132] |  | ≥ 70 |  | ≥ 70
CN(C(=O)c1cccnc1Cl)c1cccc(C(=O)Nc2c(Cl)cc(C(F)(C(F)(F)F)C(F)(F)F)cc2C(F)(F)F)c1 [7-147] |  | ≥ 70 |  | ≥ 70
CN(C(=O)c1ccccc1F)c1cccc(C(=O)Nc2c(Br)cc(C(F)(C(F)(F)F)C(F)(F)F)cc2C(F)(F)F)c1 [7-269] | ≥ 70 | ≥ 70 |  | 
CN(C(=O)c1cccc(F)c1)c1cccc(C(=O)Nc2c(Br)cc(C(F)(C(F)(F)F)C(F)(F)F)cc2C(F)(F)F)c1 [7-270] | ≥ 70 | ≥ 70 |  | 
CN(C(=O)c1ccc(F)cc1)c1cccc(C(=O)Nc2c(Br)cc(C(F)(C(F)(F)F)C(F)(F)F)cc2C(F)(F)F)c1 [7-271] |  | ≥ 70 |  | ≥ 70
CN(C(=O)c1c(F)cccc1F)c1cccc(C(=O)Nc2c(Br)cc(C(F)(C(F)(F)F)C(F)(F)F)cc2C(F)(F)F)c1 [7-290] |  | ≥ 70 |  | ≥ 70
CN(C(=O)c1cc(C#N)cc(C#N)c1)c1cccc(C(=O)Nc2c(Br)cc(C(F)(C(F)(F)F)C(F)(F)F)cc2C(F)(F)F)c1 [7-299] |  | ≥ 70 |  | ≥ 70
CN(C(=O)c1ccc(C#N)cc1F)c1cccc(C(=O)Nc2c(Br)cc(C(F)(C(F)(F)F)C(F)(F)F)cc2C(F)(F)F)c1 [7-300] |  | ≥ 70 |  | ≥ 70
